Like-named read-outs stand apart in the source and are kept apart here.
Experiments:
[1] = Plasma stability assay, rat plasma; assay type: in vitro ADME; settings: 10 μM, 37° C.
Method in brief: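 In rat plasma, five time points up to 1440 min (0, 15, 120, 480, 1440) were analysed. Human, dog and cynomolgus plasma received 2 μM compound at 1% final solvent, 37 °C, over 0–120 min (0, 10, 30, 60, 120). Values are % parent left, HPLC-MS, n=2.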

[2] = not given; remark: listed apart in the source
[3] = Plasma stability assay, dog plasma; assay type: in vitro ADME; settings: 2 μM, 37° C.
Protocol: (§1) Plasma stability determination of the test compounds in rat, dog, cynomolgus monkey and human plasma is performed using HPLC-MS. For rat, incubations are carried out in 96-well polypropylene plates in 5 aliquots of 70 μL each (one for each time point). […] Five time points are analyzed (0, 15, 120, 480 and 1440 min). […] All incubations are performed in duplicates. The samples are analyzed by HPLC-MS. The percentage of parent compound remaining after incubation in plasma is determined.

[4] = Plasma stability assay, monkey plasma; assay type: in vitro ADME, cynomolgus monkey; settings: 2 μM, 37° C.
Protocol: as §1

[5] = Plasma stability assay, human plasma; assay type: in vitro ADME; settings: 2 μM, 37° C.
Protocol: as §1

[6] = Liver S9 fraction stability, dog; assay type: in vitro ADME; settings: dog liver S9, 1.0 mg/ml S9 protein, 2 μM, 37° C.
Protocol: (§2) Liver S9 fraction stability determination of the test compounds in dog, cynomolgus monkey and human is performed using HPLC-MS. Test compound (2 μM, 0.1% DMSO, 1% Methanol final concentration) was assessed for stability in a 50 μl phosphate buffer containing 1.0 mg/ml S9 protein from each of the three species and 5 mM D-saccharic acid-1, 4-lactone. Samples were incubated at 37° C. for 60 minutes and the % compound remaining was assessed.

[7] = Liver S9 fraction stability, monkey; assay type: in vitro ADME, cynomolgus monkey; settings: monkey liver S9, 1.0 mg/ml S9 protein, 2 μM, 37° C.
Protocol: as §2

[8] = Liver S9 fraction stability, human; assay type: in vitro ADME; settings: human liver S9, 1.0 mg/ml S9 protein, 2 μM, 37° C.
Protocol: as §2

DOR = target: T1, DOR (Homo sapiens, UniProt P41143); assay: Opioid receptor binding assay, DOR ([3H]-DADLE); settings: MaxDose 10000 nM
T1 construct: expressed in transfected cells
Protocol: (§3) Receptor binding assays were performed to assess the ability of compounds to inhibit binding to radiolabeled ligand.
(§4) The stable cell lines were established and prepared cell membrane obtained using these cell lines.
3) Assay Procedure 1) Transfer 1 μl of specified concentration compound to assay plate according to the plate map for nonspecific binding. Transfer 1 μl of DMSO to assay plate according to plate map for total binding. 2) Follow the plate map. Dispense 99 μl of membrane stocks into the plate. 3) Add 100 μl of radio ligand. 4) Seal the plates. Incubate at RT for 1 hour. 5) Soak the Unifilter-96 GF/C filter plates with 50 μl of 0.3% PEI per well for at least 0.5 hour at room temperature. 6) When binding assays are completed, filter the reaction mixture through GF/C plates using Perkin Elmer Filtermate Harvester, and then wash each plate for 4 times with cold wash buffer. 7) Dry the filter plates for 1 hour at 50 degrees. 8) After drying, seal the bottom of the filter plate wells using Perkin Elmer Unifilter-96 backing seal tape. Add 50 μl of Perkin Elmer Microscint 20 cocktail. Seal top of filter plates with Perkin Elmer TopSeal-A sealing film. 9) Count ^3H trapped on filter using Perkin Elmer MicroBeta2 Reader second day. 10) Analyze the data with GraphPad Prism 5. Calculate the “Inhibition [% Control]” using the equation: % Inh=(1-Background subtracted Assay value/Background subtracted HC value)*100. Results

KOR = target: T2, KOR (Homo sapiens, UniProt P41145); assay: Opioid receptor binding assay, KOR ([3H]Diprenorphine); settings: MaxDose 10000 nM
T2 construct: expressed in transfected cells
Protocol: as §3, §4
(§5) 3) Assay Procedure 1) Transfer 1 μl of specified concentration compound to assay plate according to the plate map for nonspecific binding. Transfer 1 μl of DMSO to assay plate according to plate map for total binding. 2) Follow the plate map. Dispense 99 μl of membrane stocks into the plate. 3) Add 100 μl of radio ligand. 4) Seal the plates. Incubate at RT for 1 hour. 5) Soak the Unifilter-96 GF/C filter plates with 50 μl of 0.3% PEI per well for at least 0.5 hour at room temperature. 6) When binding assays are completed, filter the reaction mixture through GF/C plates using Perkin Elmer Filtermate Harvester, and then wash each plate for 4 times with cold wash buffer. 7) Dry the filter plates for 1 hour at 50 degrees. 8) After drying, seal the bottom of the filter plate wells using Perkin Elmer Unifilter-96 backing seal tape. Add 50 μl of Perkin Elmer Microscint 20 cocktail. Seal top of filter plates with Perkin Elmer TopSeal-A sealing film. 9) Count ^3H trapped on filter using Perkin Elmer MicroBeta2 Reader second day. 10) Analyze the data with GraphPad Prism 5. […]

MOR = target: T3, MOR (Homo sapiens, UniProt P35372); assay: Opioid receptor binding assay, MOR ([3H]DAMGO); settings: MaxDose 10000 nM
T3 construct: expressed in transfected cells
Protocol: as §3, §4, §5

[9] = Polymorph screening of solid state drug substances; settings: for Dry method and appearance: after stirring 50 °C 72 hours, dried solid; for XRPD results (Dried): dried solid after 50 °C 72 hours; for Visual observation 50° C. / Visual observation RT: target conc. 100 mg/ml
[10] = Rat pharmacokinetic studies, intramuscular; assay type: in vivo, male Sprague Dawley Rats; settings: 0.80 mg/kg, saline
Protocol: The purpose of this study is to determine the pharmacokinetics of test compounds in plasma, following intramuscular administration to male Sprague Dawley Rats (n=3, unless otherwise specified).
The dose formulation of 400 mg base equivalents/ml in sesame oil+1% benzyl alcohol (unless otherwise specified) was administered by intramuscular injection. The dose volume was determined by the animals' body weight determined on the morning of dosing day.
Each collected blood sample was centrifuged for 4 minutes at 4° C. and 10000 rpm for plasma collection. Plasma was collected and transferred into a pre-labeled PP tube in dry ice at each time point and precipitated immediately using ACN at a ratio of 1:4 (plasma:ACN). Centrifuged again (10 minutes, 12000 rpm) and obtain the supernatant. After terminal collection, all supernatant was stored at approximately −80° C. until bioanalysis.
LC-MS/MS methods for the quantitative determination of test compound in biological matrix were developed. […] The sample analysis was performed concurrently with a set of calibration standards and two sets of QC samples using the LC-MS/MS method.
Plasma concentration versus time data was analyzed by non-compartmental approaches using the Phoenix WinNonlin 6.3 software program. Cmax, Tmax, T1/2, AUC(0-t), AUC(0-inf), MRT(0-t), MRT(0-inf) and graphs of plasma concentration versus time profile were prepared.

[11] = cited from earlier work
[12] = heating temp. 60 °C, obs. temp. 25 °C
[13] = heating temp. 60 °C, obs. temp. 40 °C
[14] = heating temp. 40 °C, obs. temp. 40 °C

T1 sequence (P41143 whole entry): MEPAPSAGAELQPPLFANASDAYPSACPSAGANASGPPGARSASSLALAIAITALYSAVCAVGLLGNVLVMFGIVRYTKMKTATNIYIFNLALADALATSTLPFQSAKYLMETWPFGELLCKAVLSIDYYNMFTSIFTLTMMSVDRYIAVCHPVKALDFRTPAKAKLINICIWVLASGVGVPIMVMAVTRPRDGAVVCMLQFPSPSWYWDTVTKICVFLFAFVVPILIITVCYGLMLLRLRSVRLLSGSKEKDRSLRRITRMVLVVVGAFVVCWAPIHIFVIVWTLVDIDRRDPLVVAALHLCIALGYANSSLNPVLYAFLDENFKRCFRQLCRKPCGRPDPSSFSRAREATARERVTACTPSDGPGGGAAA
T2 sequence (P41145 whole entry): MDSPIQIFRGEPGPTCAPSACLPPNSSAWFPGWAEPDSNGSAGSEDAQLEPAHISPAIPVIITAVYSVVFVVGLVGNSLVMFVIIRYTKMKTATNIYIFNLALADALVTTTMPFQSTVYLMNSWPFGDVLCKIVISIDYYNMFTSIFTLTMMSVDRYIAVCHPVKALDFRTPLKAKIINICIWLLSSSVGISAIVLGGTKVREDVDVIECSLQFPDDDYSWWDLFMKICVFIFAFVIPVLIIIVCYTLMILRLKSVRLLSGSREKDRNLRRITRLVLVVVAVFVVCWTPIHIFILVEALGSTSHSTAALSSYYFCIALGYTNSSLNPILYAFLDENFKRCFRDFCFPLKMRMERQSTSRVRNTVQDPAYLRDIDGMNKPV
T3 sequence (P35372 whole entry): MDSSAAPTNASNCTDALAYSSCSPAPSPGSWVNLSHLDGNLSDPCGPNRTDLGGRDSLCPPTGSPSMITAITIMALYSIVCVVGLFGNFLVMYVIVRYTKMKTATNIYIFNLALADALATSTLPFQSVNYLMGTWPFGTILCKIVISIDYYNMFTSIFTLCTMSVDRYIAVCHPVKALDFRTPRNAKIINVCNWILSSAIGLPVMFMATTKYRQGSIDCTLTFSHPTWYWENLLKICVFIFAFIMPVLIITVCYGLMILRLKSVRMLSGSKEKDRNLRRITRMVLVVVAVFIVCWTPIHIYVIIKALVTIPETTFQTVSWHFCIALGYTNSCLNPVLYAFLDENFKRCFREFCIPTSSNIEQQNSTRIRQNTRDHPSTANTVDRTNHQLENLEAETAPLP

## C=C1CC[C@@]2(O)C3Cc4ccc(OC(=O)CCCCCCCCCCCCCCC)c5c4[C@@]2(CCN3CC2CC2)[C@H]1O5 [Compound 56, (4aS,7aS,12bS)-3-(cyclopropylmethyl)-4a-hydroxy-7-methylene-2,3,4,4a,5,6,7,7a-octahydro-1H-4,12-methanobenzofuro[3,2-e]isoquinolin-9-yl palmitate]
[1]; 0 min
  % remaining at time point: 100%
[1]; 15 min
  % remaining at time point: 73.1%
[1]; 120 min
  % remaining at time point: 56.7%
[1]; 480 min
  % remaining at time point: 35.8%
[1]; 1440 min
  % remaining at time point: 16.8%
other
  melting point: 48.95 °C
[2]; [12]
  Approximate Solubility (mg/mL) in Excipient: Cottonseed oil: <50 mg/mL
  Approximate Solubility (mg/mL) in Excipient: Sesame oil: <50 mg/mL
[2]; [13]
  Approximate Solubility (mg/mL) in Excipient: Cottonseed oil: 25 to 50 mg/mL
  Approximate Solubility (mg/mL) in Excipient: Ethanol: <40.4 mg/mL
  Approximate Solubility (mg/mL) in Excipient: Sesame oil: 25 to 50 mg/mL

## C=C1CC[C@@]2(O)C3Cc4ccc(OC(=O)OCCCCCCCCCCCC)c5c4[C@@]2(CCN3CC2CC2)[C@H]1O5 [Compound 6, (4aS,7aS,12bS)-3-(cyclopropylmethyl)-4a-hydroxy-7-methylene-2,3,4,4a,5,6,7,7a-octahydro-1H-4,12-methanobenzofuro[3,2-e]isoquinolin-9-yl dodecyl carbonate]
[1]; 0 min
  % remaining at time point: 100%
[1]; 15 min
  % remaining at time point: 31.3%
[1]; 120 min
  % remaining at time point: 7.6%
[1]; 480 min
  % remaining at time point: 4%
[1]; 1440 min
  % remaining at time point: 1.6%
[3]; 0 min
  % remaining at time point: 100%
[3]; 15 min (head)
  % remaining at time point: 89.1%
[3]; 120 min (head)
  % remaining at time point: 96.9%
[3]; 480 min (head)
  % remaining at time point: 107.2%
[3]; 1440 min (head)
  % remaining at time point: 101.2%
[4]; 0 min
  % remaining at time point: 100%
[4]; 15 min (head)
  % remaining at time point: 88.7%
[4]; 120 min (head)
  % remaining at time point: 74.3%
[4]; 480 min (head)
  % remaining at time point: 68.4%
[4]; 1440 min (head)
  % remaining at time point: 70.1%
[5]; 0 min
  % remaining at time point: 100%
[5]; 15 min (head)
  % remaining at time point: 97.6%
[5]; 120 min (head)
  % remaining at time point: 102%
[5]; 480 min (head)
  % remaining at time point: 109.8%
[5]; 1440 min (head)
  % remaining at time point: 115.1%
[6]
  % remaining at 60 minutes: 17.1%
[7]
  % remaining at 60 minutes: 0%
[8]
  % remaining at 60 minutes: 5.3%
DOR
  % Inh@MaxDose: 70.9%
[2]; [12]
  Approximate Solubility (mg/mL) in Excipient: Cottonseed oil: >397 mg/mL
  Approximate Solubility (mg/mL) in Excipient: Sesame oil: >386 mg/mL
[2]; [14]
  Approximate Solubility (mg/mL) in Excipient: Ethanol: 120 to 170 mg/mL
  Approximate Solubility (mg/mL) in Excipient: Sesame oil: >402.8 mg/mL

## C=C1CC[C@@]2(O)C3Cc4ccc(OCOC(=O)OCCCCCCCCCCCCCCCC)c5c4[C@@]2(CCN3CC2CC2)[C@H]1O5 [Compound 34, (((4aS,7aS,12bS)-3-(cyclopropylmethyl)-4a-hydroxy-7-methylene-2,3,4,4a,5,6,7,7a-octahydro-1H-4,12-methanobenzofuro[3,2-e]isoquinolin-9-yl)oxy)methyl hexadecyl carbonate]
KOR
  % Inh@MaxDose: 68.1%
MOR
  % Inh@MaxDose: 92.7%
[2]; Water, heating temp. 40 °C, obs. temp. 40 °C
  Equilibrium solubility (mg/mL) Water: <0.001 mg/mL

## C=C1CC[C@@]2(O)C3Cc4ccc(OC(=O)NC(C)(C)C)c5c4[C@@]2(CCN3CC2CC2)[C@H]1O5 [Compound 40, (4aS,7aS,12bS)-3-(cyclopropylmethyl)-4a-hydroxy-7-methylene-2,3,4,4a,5,6,7,7a-octahydro-1H-4,12-methanobenzofuro[3,2-e]isoquinolin-9-yl tert-butylcarbamate]
other
  melting point: 107.6 °C
[9]; Acetone
  Dry method and appearance: Evaporation/white powder
  XRPD results (Dried): Amorphous
  Visual observation 50° C.: Clear
  Visual observation RT: Slurry
[9]; EtOAc
  Dry method and appearance: Evaporation/white powder
  XRPD results (Dried): Pattern A
  Visual observation 50° C.: Clear
  Visual observation RT: Slurry
[9]; Heptane
  Dry method and appearance: Centrifugation/white powder
  XRPD results (Dried): Pattern A
  Visual observation 50° C.: Slurry
  Visual observation RT: Slurry
[9]; Isopropanol
  Dry method and appearance: Evaporation/oil
  XRPD results (Dried): Amorphous
  Visual observation 50° C.: Clear
  Visual observation RT: Slurry
[9]; MTBE
  Dry method and appearance: Evaporation/white powder
  XRPD results (Dried): Amorphous
  Visual observation 50° C.: Clear
  Visual observation RT: Clear

## C=C1CC[C@@]2(O)C3Cc4ccc(O)c5c4[C@@]2(CCN3CC2CC2)[C@H]1O5.Cl [Nalmefene HCl-IR]
[10]
  AUC0-inf (ng · h/mL) nalmefene: 66.0 ng·h/mL
  Terminal Half-life t1/2 (hour) nalmefene: 0.87 h

## Oc1ccc2c3c1O[C@H]1[C@H](O)CC[C@@]4(O)[C@@H](C2)N(CC2CC2)CC[C@]314 [6-β-naltrexol]
[11]
  time of peak plasma levels after oral dosing: within one hour
[11]; oral dosing
  mean elimination half-life: thirteen

From patent publication US10533015B1, “Opioid receptor antagonist prodrugs” (Nirsum Laboratories, Inc., priority 2019, dated 2020)
